Measurements from patent US6737383B1, “Herbicidal oxadiazolidines” (priority 1999, dated 2004).

How the values were obtained:
common ragweed = experiment: Test D common ragweed; type: in vivo, Ambrosia elatior; conditions: Preemergence, 0 to 100 scale
Method in brief: (§1)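 Weed seeds planted in sandy loam; species kept apart in individual pots or compartments. Preemergence tests: treatment to soil surface within one day. Greenhouse growth, then visual injury scoring at 14–21 days (0–100).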

dallisgrass = experiment: Test D dallisgrass; type: in vivo, Paspalum dilatatum; conditions: Preemergence, 0 to 100 scale
Method in brief: as §1

goosegrass = experiment: Test D goosegrass; type: in vivo, Eleusine indica; conditions: Preemergence, 0 to 100 scale
Method in brief: as §1

itchgrass = experiment: Test D itchgrass; type: in vivo, Rottboellia exaltata; conditions: Preemergence, 0 to 100 scale
Method in brief: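 Scoring used a 0–100 visual injury scale, with 0 meaning no effect and 100 complete control, assessed 14–21 days after application alongside untreated pots. Preemergence treatments went onto sandy loam surfaces of separately potted seeds within a day of sowing.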

Spanishneedles = experiment: Test D Spanishneedles; type: in vivo, Bidens bipinnata; conditions: Preemergence, 0 to 100 scale
Method in brief: as §1

surinam grass = experiment: Test D surinam grass; type: in vivo, Brachiaria decumbens; conditions: Preemergence, 0 to 100 scale
Method in brief: as §1

rape = experiment: Test E rape; type: in vivo, Brassica napus; conditions: Postemergence
Method in brief: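 For postemergence, plants at the 1- to 4-leaf stage, in a 60:40 mix of sandy loam and potting mix, treated with compound formulated in a surfactant-containing non-phytotoxic solvent. Visual assessment versus untreated controls followed roughly 21–28 days in the greenhouse.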

lambsquarters = experiment: Test E lambsquarters; type: in vivo, Chenopodium album; conditions: Preemergence
crabgrass = experiment: Test A crabgrass; type: in vivo, Digitaria spp.; conditions: 0 to 10 scale where 0 is no effect and 10 is complete control
Protocol: Seeds of barnyardgrass (Echinochloa crus-galli), crabgrass (Digitaria spp.), morningglory (Ipomoea spp.), and velvetleaf (Abutilon theophrasti) were planted into a sandy loam soil and treated preemergence by soil drench with test chemicals formulated in a non-phytotoxic solvent mixture which includes a surfactant At the same time, these crop and weed species were also treated postemergence sprayed to runoff, with test chemicals formulated in the same manner.
Plants ranged in height from two to eighteen cm and were in the one to two leaf stage for the postemergence treatment. Treated plants and untreated controls were maintained in a greenhouse for approximately eleven days, after which all treated plants were compared to untreated controls and visually evaluated for injury. Plant response ratings, summarized in Table A, are based on a 0 to 10 scale where 0 is no effect and 10 is complete control.

[1] = Rate 16 g/ha, 0 no injury, 100 complete control
[2] = Rate 32 g/ha, 0 no injury, 100 complete control
[3] = Rate 64 g/ha, 0 no injury, 100 complete control
[4] = Rate 125 g/ha, 0 no injury, 100 complete control

**Q.** What does the source list for `CCn1c(=O)on(C(=O)N(c2ccc(F)cc2)C(C)C)c1=O` [Compound 107]?
**A.** Plant response rating, C. ragweed (common ragweed; [1]): 0; Plant response rating, C. ragweed (common ragweed; [2]): 0; Plant response rating, C. ragweed (common ragweed; [3]): 0; Plant response rating, C. ragweed (common ragweed; [4]): 85; Plant response rating, C. ragweed (common ragweed; Rate 250 g/ha): 100; Plant response rating, C. ragweed (common ragweed; Rate 500 g/ha): 100; Plant response rating, Dallisgrass (dallisgrass; [1]): 30; Plant response rating, Dallisgrass (dallisgrass; [2]): 85; Plant response rating, Dallisgrass (dallisgrass; [3]): 100; Plant response rating, Dallisgrass (dallisgrass; [4]): 100; Plant response rating, Dallisgrass (dallisgrass; Rate 250 g/ha): 100; Plant response rating, Dallisgrass (dallisgrass; Rate 500 g/ha): 100; Plant response rating, Goosegrass (goosegrass; [1]): 85; Plant response rating, Goosegrass (goosegrass; [2]): 98; Plant response rating, Goosegrass (goosegrass; [3]): 100; Plant response rating, Goosegrass (goosegrass; [4]): 100; Plant response rating, Goosegrass (goosegrass; Rate 250 g/ha): 100; Plant response rating, Goosegrass (goosegrass; Rate 500 g/ha): 100; Plant response rating, Itchgrass (itchgrass; [1]): 40; Plant response rating, Itchgrass (itchgrass; [2]): 75; Plant response rating, Itchgrass (itchgrass; [3]): 85; Plant response rating, Itchgrass (itchgrass; [4]): 98; Plant response rating, Itchgrass (itchgrass; Rate 250 g/ha): 100; Plant response rating, Itchgrass (itchgrass; Rate 500 g/ha): 100; Plant response rating, Spanishneedles (Spanishneedles; [1]): 0; Plant response rating, Spanishneedles (Spanishneedles; [2]): 0; Spanishneedles plant response rating (Spanishneedles; [3]): 0; Spanishneedles plant response rating (Spanishneedles; [4]): 20; Plant response rating, Spanishneedles (Spanishneedles; Rate 500 g/ha): 100; Plant response rating, Surinam grass (surinam grass; [1]): 30; Plant response rating, Surinam grass (surinam grass; [2]): 75; Surinam grass plant response rating (surinam grass; [3]): 100; Surinam grass plant response rating (surinam grass; [4]): 100; Plant response rating, Surinam grass (surinam grass; Rate 250 g/ha): 100; Plant response rating, Surinam grass (surinam grass; Rate 500 g/ha): 100; Plant response rating, Rape (rape; Rate 62 g/ha, 0 to 100 scale): 20; Plant response rating, Rape (rape; Rate 125 g/ha, 0 to 100 scale): 30; Plant response rating, Rape (rape; Rate 250 g/ha, 0 to 100 scale (0 no effect, 100 complete control)): 50; Plant response rating, Lambsquarters (lambsquarters; Rate 62 g/ha, 0 to 100 scale, 0 no effect, 100 complete control): 100; Plant response rating, Lambsquarters (lambsquarters; Rate 125 g/ha, 0 to 100 scale (0 no effect, 100 complete control)): 100; Plant response rating, Lambsquarters (lambsquarters; Rate 250 g/ha, 0 to 100 scale): 100

**Q.** How did the “Plant response rating, Crabgrass” value (crabgrass; Postemergence, Rate 1000 g/ha) turn out when `CCOC(=O)Cn1c(=O)on(C(=O)N(c2ccc(F)cc2)C(C)C)c1=O` [Compound 128] was run?
**A.** 0

**Q.** What about the “Plant response rating, Crabgrass” value (crabgrass; Pre-emergence, Rate 2000 g/ha) of the same compound?
**A.** 0

**Q.** `Cc1ccccc1Cn1c(=O)on(C(=O)N(c2ccc(Cl)cc2)C(C)C)c1=O` [Compound 136] was tested. Which “Plant response rating, Crabgrass” value (crabgrass; Postemergence, Rate 1000 g/ha) did it give?
**A.** 6

**Q.** And the “Plant response rating, Crabgrass” value (crabgrass; Pre-emergence, Rate 2000 g/ha)?
**A.** 10
